Measurements reported in paper PMC5766581, “NF-κB inducing kinase is a therapeutic target for systemic lupus erythematosus” (Nature Communications, 2018).

Legend:
Experiment in all cases: SelectScreen kinase panel
Type in all cases: biochemical
[1] = target: T1, PLK1 (Homo sapiens, UniProt P53350)
T1 construct: purchased Invitrogen / ThermoFisher SelectScreen
How it was run: (§1)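 Using one of three vendor formats (Z′-LYTE, Adapta, LanthaScreen), Invitrogen measured compound effects across its SelectScreen kinase collection. Average inhibition percentages are listed.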

[2] = target: T2, PKC_zeta (Homo sapiens, UniProt Q05513)
T2 construct: purchased Invitrogen / ThermoFisher SelectScreen
How it was run: as §1

[3] = target: T3, Flt3 (Homo sapiens, UniProt P36888)
T3 construct: purchased Invitrogen / ThermoFisher SelectScreen
How it was run: as §1

[4] = target: T4, Ret (Homo sapiens, UniProt P07949)
T4 construct: purchased Invitrogen / ThermoFisher SelectScreen
How it was run: as §1

[5] = target: T5, DYRK1A (Homo sapiens, UniProt Q13627)
T5 construct: purchased Invitrogen / ThermoFisher SelectScreen
How it was run: as §1

[6] = target: T6, PI3K- G (Homo sapiens, UniProt P48736)
T6 construct: purchased Invitrogen / ThermoFisher SelectScreen
How it was run: as §1

[7] = target: T7, PrKX (Homo sapiens, UniProt P51817)
T7 construct: purchased Invitrogen / ThermoFisher SelectScreen
How it was run: as §1

[8] = target: T8, MST1 (Homo sapiens, UniProt Q13043)
T8 construct: purchased Invitrogen / ThermoFisher SelectScreen
How it was run: as §1

[9] = target: T9, RSK1 (Homo sapiens, UniProt Q15418)
T9 construct: purchased Invitrogen / ThermoFisher SelectScreen
How it was run: as §1

[10] = target: T10, P38_delta (Homo sapiens, UniProt O15264)
T10 construct: purchased Invitrogen / ThermoFisher SelectScreen
How it was run: as §1

[11] = target: T11, MRCK_alpha (Homo sapiens, UniProt Q5VT25)
T11 construct: purchased Invitrogen / ThermoFisher SelectScreen
How it was run: as §1

[12] = target: T12, MARK1 (Homo sapiens, UniProt Q9P0L2)
T12 construct: purchased Invitrogen / ThermoFisher SelectScreen
How it was run: as §1

[13] = target: T13, CHK1 (Homo sapiens, UniProt O14757)
T13 construct: purchased Invitrogen / ThermoFisher SelectScreen
How it was run: as §1

[14] = target: T14, TSSK1 (Homo sapiens, UniProt Q9BXA7)
T14 construct: purchased Invitrogen / ThermoFisher SelectScreen
T14 sequence (Q9BXA7 whole entry): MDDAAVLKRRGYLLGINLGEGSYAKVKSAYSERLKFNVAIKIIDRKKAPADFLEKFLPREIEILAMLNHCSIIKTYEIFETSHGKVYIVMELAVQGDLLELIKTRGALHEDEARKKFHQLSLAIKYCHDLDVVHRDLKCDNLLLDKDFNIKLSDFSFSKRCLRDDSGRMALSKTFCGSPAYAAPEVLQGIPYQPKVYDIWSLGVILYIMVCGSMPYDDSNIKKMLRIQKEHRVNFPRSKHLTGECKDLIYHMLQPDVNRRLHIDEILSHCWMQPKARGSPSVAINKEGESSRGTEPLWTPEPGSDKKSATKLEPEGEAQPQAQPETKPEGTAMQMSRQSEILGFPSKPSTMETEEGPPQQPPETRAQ
How it was run: as §1

[15] = target: T15, p70S6K (Homo sapiens, UniProt P23443)
T15 construct: purchased Invitrogen / ThermoFisher SelectScreen
How it was run: as §1

[16] = target: T16, TBK1 (Homo sapiens, UniProt Q9UHD2)
T16 construct: purchased Invitrogen / ThermoFisher SelectScreen
How it was run: as §1

[17] = target: T17, CSK (Homo sapiens, UniProt P41240)
T17 construct: purchased Invitrogen / ThermoFisher SelectScreen
How it was run: as §1

[18] = target: T18, IRAK1 (Homo sapiens, UniProt P51617)
T18 construct: purchased Invitrogen / ThermoFisher SelectScreen
T18 sequence (P51617 whole entry): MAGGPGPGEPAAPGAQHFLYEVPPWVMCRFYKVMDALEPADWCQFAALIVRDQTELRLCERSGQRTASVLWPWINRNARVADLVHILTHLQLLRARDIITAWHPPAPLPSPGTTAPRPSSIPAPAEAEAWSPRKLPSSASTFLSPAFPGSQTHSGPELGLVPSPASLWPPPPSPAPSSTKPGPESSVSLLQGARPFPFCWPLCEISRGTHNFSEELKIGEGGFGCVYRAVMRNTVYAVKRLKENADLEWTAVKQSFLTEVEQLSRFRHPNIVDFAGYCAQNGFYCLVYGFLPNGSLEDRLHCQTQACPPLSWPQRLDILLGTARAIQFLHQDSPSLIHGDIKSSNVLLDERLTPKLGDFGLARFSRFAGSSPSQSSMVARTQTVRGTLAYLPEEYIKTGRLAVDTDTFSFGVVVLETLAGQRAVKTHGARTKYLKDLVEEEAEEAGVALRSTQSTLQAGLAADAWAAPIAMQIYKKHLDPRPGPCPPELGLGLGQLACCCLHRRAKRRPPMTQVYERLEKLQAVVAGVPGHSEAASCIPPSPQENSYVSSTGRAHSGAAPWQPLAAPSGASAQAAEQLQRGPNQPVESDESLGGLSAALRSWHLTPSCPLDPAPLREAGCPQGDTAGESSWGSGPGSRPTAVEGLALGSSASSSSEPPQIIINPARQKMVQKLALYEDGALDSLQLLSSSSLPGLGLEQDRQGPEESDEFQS
How it was run: as §1

[19] = target: T19, EphA7 (Homo sapiens, UniProt Q15375)
T19 construct: purchased Invitrogen / ThermoFisher SelectScreen
T19 sequence (Q15375 28-998): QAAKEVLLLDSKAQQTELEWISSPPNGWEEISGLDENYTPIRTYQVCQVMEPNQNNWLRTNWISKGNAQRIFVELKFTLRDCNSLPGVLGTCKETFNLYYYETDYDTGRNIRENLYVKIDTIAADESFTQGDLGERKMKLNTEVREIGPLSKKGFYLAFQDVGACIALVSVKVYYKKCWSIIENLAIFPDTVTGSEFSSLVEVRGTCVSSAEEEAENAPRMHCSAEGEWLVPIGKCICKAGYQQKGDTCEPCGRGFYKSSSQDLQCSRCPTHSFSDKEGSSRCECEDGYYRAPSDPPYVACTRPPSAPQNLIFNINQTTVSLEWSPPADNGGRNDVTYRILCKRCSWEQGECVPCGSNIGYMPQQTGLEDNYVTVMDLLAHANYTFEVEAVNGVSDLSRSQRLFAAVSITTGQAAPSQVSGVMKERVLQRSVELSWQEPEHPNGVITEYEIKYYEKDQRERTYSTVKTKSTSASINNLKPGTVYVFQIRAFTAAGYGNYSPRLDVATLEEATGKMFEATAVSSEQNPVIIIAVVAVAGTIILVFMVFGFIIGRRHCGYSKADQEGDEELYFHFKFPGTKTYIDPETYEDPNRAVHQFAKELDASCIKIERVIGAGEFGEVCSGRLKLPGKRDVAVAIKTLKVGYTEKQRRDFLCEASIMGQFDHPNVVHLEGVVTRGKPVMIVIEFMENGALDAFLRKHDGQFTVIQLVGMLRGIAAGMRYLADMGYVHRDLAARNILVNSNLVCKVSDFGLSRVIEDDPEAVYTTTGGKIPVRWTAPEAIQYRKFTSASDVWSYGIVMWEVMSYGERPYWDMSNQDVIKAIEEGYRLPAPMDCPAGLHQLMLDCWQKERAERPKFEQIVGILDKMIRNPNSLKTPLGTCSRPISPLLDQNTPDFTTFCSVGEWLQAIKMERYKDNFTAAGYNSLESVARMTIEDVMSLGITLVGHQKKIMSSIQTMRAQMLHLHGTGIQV
How it was run: as §1

[20] = target: T20, FGFR4 (Homo sapiens, UniProt P22455)
T20 construct: purchased Invitrogen / ThermoFisher SelectScreen
How it was run: as §1

[21] = target: T21, CaMKII_beta (Homo sapiens, UniProt Q13554)
T21 construct: purchased Invitrogen / ThermoFisher SelectScreen
How it was run: as §1

[22] = target: T22, LTK (Homo sapiens, UniProt P29376)
T22 construct: purchased Invitrogen / ThermoFisher SelectScreen
How it was run: as §1

[23] = target: T23, GRK3 (Homo sapiens, UniProt P35626)
T23 construct: purchased Invitrogen / ThermoFisher SelectScreen
How it was run: as §1

[24] = target: T24, PASK (Homo sapiens, UniProt Q96RG2)
T24 construct: purchased Invitrogen / ThermoFisher SelectScreen
T24 sequence (Q96RG2 whole entry): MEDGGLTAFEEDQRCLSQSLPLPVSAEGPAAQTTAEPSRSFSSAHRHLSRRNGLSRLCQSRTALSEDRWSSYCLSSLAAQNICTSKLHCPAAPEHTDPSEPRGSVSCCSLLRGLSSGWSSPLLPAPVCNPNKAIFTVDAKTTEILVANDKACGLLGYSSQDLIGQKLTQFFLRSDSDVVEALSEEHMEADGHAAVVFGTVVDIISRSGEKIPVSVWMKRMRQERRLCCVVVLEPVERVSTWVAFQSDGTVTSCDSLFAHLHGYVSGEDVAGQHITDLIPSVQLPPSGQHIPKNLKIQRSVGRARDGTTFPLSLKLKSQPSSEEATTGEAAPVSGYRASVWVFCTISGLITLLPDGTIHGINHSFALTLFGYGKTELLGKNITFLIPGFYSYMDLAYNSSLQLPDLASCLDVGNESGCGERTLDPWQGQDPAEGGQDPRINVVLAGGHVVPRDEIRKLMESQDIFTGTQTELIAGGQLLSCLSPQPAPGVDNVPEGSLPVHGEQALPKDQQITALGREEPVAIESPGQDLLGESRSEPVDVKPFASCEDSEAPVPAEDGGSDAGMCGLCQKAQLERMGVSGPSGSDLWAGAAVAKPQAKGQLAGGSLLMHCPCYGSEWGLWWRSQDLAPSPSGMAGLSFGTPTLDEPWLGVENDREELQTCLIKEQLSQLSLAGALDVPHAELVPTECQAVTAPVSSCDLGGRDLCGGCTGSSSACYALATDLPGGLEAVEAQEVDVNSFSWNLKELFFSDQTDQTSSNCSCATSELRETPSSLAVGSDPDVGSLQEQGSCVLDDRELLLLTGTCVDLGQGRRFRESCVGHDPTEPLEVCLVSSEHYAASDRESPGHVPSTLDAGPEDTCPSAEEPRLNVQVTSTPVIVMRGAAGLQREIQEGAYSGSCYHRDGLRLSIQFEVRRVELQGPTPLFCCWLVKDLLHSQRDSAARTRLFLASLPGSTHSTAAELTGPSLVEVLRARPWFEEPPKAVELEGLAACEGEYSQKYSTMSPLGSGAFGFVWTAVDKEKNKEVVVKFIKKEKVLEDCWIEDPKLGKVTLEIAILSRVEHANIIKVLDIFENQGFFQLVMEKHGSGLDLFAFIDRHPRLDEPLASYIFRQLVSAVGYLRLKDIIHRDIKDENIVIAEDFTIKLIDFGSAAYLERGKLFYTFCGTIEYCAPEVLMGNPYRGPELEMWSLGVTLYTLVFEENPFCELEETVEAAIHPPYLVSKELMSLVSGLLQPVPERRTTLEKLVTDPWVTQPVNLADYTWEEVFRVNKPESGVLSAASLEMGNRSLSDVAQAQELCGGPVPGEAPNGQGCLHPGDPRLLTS
How it was run: as §1

[25] = target: T25, PRK1 (Homo sapiens, UniProt Q16512)
T25 construct: purchased Invitrogen / ThermoFisher SelectScreen
How it was run: as §1

[26] = target: T26, ROCK2 (Homo sapiens, UniProt O75116)
T26 construct: purchased Invitrogen / ThermoFisher SelectScreen
T26 sequence (O75116 whole entry): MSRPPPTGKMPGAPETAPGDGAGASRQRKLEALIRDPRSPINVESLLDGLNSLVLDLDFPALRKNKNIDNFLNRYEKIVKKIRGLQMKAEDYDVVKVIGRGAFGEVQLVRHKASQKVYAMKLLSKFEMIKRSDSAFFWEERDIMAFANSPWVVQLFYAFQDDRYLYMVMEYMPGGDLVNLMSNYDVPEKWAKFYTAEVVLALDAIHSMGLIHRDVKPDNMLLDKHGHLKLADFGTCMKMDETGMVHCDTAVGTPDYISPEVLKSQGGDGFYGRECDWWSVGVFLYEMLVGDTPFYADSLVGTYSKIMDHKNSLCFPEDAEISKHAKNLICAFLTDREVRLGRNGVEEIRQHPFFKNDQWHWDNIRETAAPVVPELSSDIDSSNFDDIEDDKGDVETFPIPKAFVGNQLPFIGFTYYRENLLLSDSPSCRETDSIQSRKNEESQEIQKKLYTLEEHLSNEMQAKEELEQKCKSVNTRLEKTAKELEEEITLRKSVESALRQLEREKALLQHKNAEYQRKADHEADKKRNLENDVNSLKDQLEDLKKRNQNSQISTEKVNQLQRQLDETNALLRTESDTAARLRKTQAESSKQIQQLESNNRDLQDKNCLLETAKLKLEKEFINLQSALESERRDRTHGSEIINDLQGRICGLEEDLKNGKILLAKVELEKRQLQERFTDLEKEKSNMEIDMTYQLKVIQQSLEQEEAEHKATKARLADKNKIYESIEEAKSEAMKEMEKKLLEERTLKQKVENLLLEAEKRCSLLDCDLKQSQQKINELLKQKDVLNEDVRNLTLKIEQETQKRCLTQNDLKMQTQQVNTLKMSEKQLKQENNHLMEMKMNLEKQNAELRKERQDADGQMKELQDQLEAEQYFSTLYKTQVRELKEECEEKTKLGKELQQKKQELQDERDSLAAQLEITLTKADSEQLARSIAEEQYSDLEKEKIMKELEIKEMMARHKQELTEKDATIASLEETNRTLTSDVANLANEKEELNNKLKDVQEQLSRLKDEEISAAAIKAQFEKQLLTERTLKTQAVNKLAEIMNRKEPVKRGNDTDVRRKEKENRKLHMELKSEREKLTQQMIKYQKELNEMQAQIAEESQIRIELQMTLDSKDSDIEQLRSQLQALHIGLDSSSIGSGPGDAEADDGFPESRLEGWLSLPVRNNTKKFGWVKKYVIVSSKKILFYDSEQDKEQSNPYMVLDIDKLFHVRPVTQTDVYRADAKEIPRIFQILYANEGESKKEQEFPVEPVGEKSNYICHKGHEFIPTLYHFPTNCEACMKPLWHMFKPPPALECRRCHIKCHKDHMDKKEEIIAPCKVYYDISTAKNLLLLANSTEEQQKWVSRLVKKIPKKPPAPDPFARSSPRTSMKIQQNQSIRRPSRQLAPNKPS
How it was run: as §1

[27] = target: T27, PKD_delta (Homo sapiens, UniProt Q05655)
T27 construct: purchased Invitrogen / ThermoFisher SelectScreen
How it was run: as §1

[28] = target: T28, PKC_eta (Homo sapiens, UniProt P24723)
T28 construct: purchased Invitrogen / ThermoFisher SelectScreen
How it was run: as §1

[29] = target: T29, ARK5 (Homo sapiens, UniProt O60285)
T29 construct: purchased Invitrogen / ThermoFisher SelectScreen
How it was run: as §1

[30] = target: T30, PDK1 (Homo sapiens, UniProt O15530)
T30 construct: purchased Invitrogen / ThermoFisher SelectScreen
How it was run: as §1

[31] = target: T31, TXK (Homo sapiens, UniProt P42681)
T31 construct: purchased Invitrogen / ThermoFisher SelectScreen
How it was run: as §1

[32] = target: T32, TrkA (Homo sapiens, UniProt P04629)
T32 construct: purchased Invitrogen / ThermoFisher SelectScreen
How it was run: as §1

[33] = target: T33, NEK6 (Homo sapiens, UniProt Q9HC98)
T33 construct: purchased Invitrogen / ThermoFisher SelectScreen
T33 sequence (Q9HC98 whole entry): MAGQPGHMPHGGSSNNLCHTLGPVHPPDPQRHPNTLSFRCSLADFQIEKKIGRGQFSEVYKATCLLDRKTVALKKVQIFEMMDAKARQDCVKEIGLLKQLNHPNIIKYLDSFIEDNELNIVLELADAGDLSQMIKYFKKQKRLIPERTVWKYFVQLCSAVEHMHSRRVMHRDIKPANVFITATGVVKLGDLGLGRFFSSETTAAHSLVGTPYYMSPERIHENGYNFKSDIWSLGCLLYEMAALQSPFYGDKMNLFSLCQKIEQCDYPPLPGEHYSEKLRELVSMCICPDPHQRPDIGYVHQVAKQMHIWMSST
How it was run: as §1

For `COc1cc(C(N)=O)nc(-c2cccc(C#C[C@]3(O)CCN(C)C3=O)c2)c1` [NIK SMI1], the inhibition at 1 µM [1] was 1.5%, the inhibition at 1 µM [2] was 7% and the inhibition at 1 µM [3] was 13.5%. For the same compound, the inhibition at 1 µM [4] was 2%, the inhibition at 1 µM [5] was 4.5% and the inhibition at 1 µM [6] was -2.9%. For the same compound, the inhibition at 1 µM [7] was 11%, the inhibition at 1 µM [8] was 11.5% and the inhibition at 1 µM [9] was 4.5%. It also gave an inhibition at 1 µM [10] of 12.5%, an inhibition at 1 µM [11] of 0.5% and an inhibition at 1 µM [12] of 16%. For the same compound, the inhibition at 1 µM [13] was 14%, the inhibition at 1 µM [14] was 61% and the inhibition at 1 µM [15] was 9.5%. The inhibition at 1 µM [16] was 26.5%, the inhibition at 1 µM [17] was 12.5% and the inhibition at 1 µM [18] was 1.8%. For the same compound, the inhibition at 1 µM [19] was 5.1%, the inhibition at 1 µM [20] was 7.5% and the inhibition at 1 µM [21] was 30.5%. It also gave an inhibition at 1 µM [22] of -1%, an inhibition at 1 µM [23] of 1.5% and an inhibition at 1 µM [24] of 16%. The inhibition at 1 µM [25] was 5.5%, the inhibition at 1 µM [26] was 7.5% and the inhibition at 1 µM [27] was 1.5%. It also gave an inhibition at 1 µM [28] of 38%, an inhibition at 1 µM [29] of 1.5% and an inhibition at 1 µM [30] of -0.5%. For the same compound, the inhibition at 1 µM [31] was 4.5%, the inhibition at 1 µM [32] was 2.5% and the inhibition at 1 µM [33] was 17%.
